Laboratory results from PubChem BioAssay AID256 (DTP/NCI, 2004).
Where “and” joins values, the source holds several entries; their conditions need not be identical. Equal entries are not always repeated. Toxic doses and inconclusive results are not listed.

Test system: CD2F1 mice, L1210 leukemia ip, survival T/C
Test: NCI In Vivo Anticancer Drug Screen. Data for tumor model L1210 Leukemia (intraperitoneal) in CD2F1 (CDF1) mice
Conditions: endpoint: mean survival time, higher = longer survival
Method in brief: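 Read-out first: treated-group measurement over vehicle-control measurement, expressed as a ratio. Animals bore a transplanted tumor line and were dosed with compound or vehicle.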

[1] = dose: 50.0 mg/kg/injection, schedule: Q01DX009 (ip), vehicle: saline with Tween-80
[2] = dose: 100.0 mg/kg/injection, schedule: Q01DX009 (ip), vehicle: saline with Tween-80
[3] = dose: 200.0 mg/kg/injection, schedule: Q01DX009 (ip), vehicle: saline with Tween-80
[4] = dose: 100.0 mg/kg/injection, schedule: Q04DX003 (ip), vehicle: saline with Tween-80
[5] = dose: 200.0 mg/kg/injection, schedule: Q04DX003 (ip), vehicle: saline with Tween-80
[6] = dose: 400.0 mg/kg/injection, schedule: Q04DX003 (ip), vehicle: saline with Tween-80
[7] = dose: 25.0 mg/kg/injection, schedule: Q01DX001 (ip), vehicle: saline with Tween-80
[8] = dose: 25.0 mg/kg/injection, schedule: Q04DX002 (ip), vehicle: saline with Tween-80
[9] = dose: 25.0 mg/kg/injection, schedule: Q04DX003 (ip), vehicle: saline with Tween-80
[10] = dose: 50.0 mg/kg/injection, schedule: Q01DX001 (ip), vehicle: saline with Tween-80
[11] = dose: 100.0 mg/kg/injection, schedule: Q01DX001 (ip), vehicle: saline with Tween-80
[12] = dose: 400.0 mg/kg/injection, schedule: Q01DX009 (ip), vehicle: saline with Tween-80

For `CC(=O)CC(C)=NCC(C)N=C(C)CC(C)=O.c1cc[c]([Sn][c]2ccccc2)cc1` (stereo unspecified), the T/C (dose: 2.5 mg/kg/injection, schedule: Q01DX009 (ip), vehicle: saline with Tween-80) was 93 % of control, the T/C (dose: 5.0 mg/kg/injection, schedule: Q01DX001 (ip), vehicle: saline with Tween-80) was 98 % of control and the T/C (dose: 5.0 mg/kg/injection, schedule: Q01DX009 (ip), vehicle: saline with Tween-80) was 107 % of control. The T/C (dose: 10.0 mg/kg/injection, schedule: Q01DX001 (ip), vehicle: saline with Tween-80) was 103 % of control.
For `Clc1ccc(Oc2ccc(Cl)cc2)cc1`, the T/C [1] was 94 % of control, the T/C [2] was 100 % of control and the T/C [3] was 105 % of control.
`COc1ccc(C(=O)CC(C(=O)O)c2ccc(OC)c(OC)c2)cc1OC` (stereo unspecified) was tested, and the T/C [4] was 98 % of control, the T/C [5] was 102 % of control and the T/C [6] was 91 % of control.
With `Nc1ncnc2c1c1c(SCc3ccc([N+](=O)[O-])cc3)ncnc1n2C1OC(CO)C(O)C1O` (stereo unspecified) the T/C (dose: 6.25 mg/kg/injection, schedule: Q01DX005 (ip), vehicle: other) was 104 % of control, the T/C (dose: 12.5 mg/kg/injection, schedule: Q01DX005 (ip), vehicle: other) was 104 % of control and the T/C (dose: 25.0 mg/kg/injection, schedule: Q01DX005 (ip), vehicle: other) was 104 % of control. For the same compound, the T/C (dose: 50.0 mg/kg/injection, schedule: Q01DX005 (ip), vehicle: other) was 113 % of control, the T/C (dose: 100.0 mg/kg/injection, schedule: Q01DX005 (ip), vehicle: other) was 103 % of control and the T/C (dose: 200.0 mg/kg/injection, schedule: Q01DX005 (ip), vehicle: other) was 98 % of control.
For `CCC[CH2][Sn]1([CH2]CCC)[O]C(=O)c2c(Cl)c(Cl)c(Cl)c(Cl)c2C(=O)[O]1`, the T/C (dose: 5.0 mg/kg/injection, schedule: Q01DX001 (ip), vehicle: saline) was 101 % of control, the T/C (dose: 10.0 mg/kg/injection, schedule: Q01DX001 (ip), vehicle: saline) was 101 % of control and the T/C (dose: 20.0 mg/kg/injection, schedule: Q01DX001 (ip), vehicle: saline) was 109 % of control.
With `CCCCC(CC)C(O)CC(O)CC` (stereo unspecified) the T/C [4] was 92 % of control, the T/C [5] was 91 % of control and the T/C [6] was 91 % of control.
For `COCCCNC(=O)CS(=O)(=O)c1ccc(C)cc1`, the T/C (dose: 100.0 mg/kg/injection, schedule: Q04DX003 (ip), vehicle: saline) was 102 % of control, the T/C (dose: 200.0 mg/kg/injection, schedule: Q04DX003 (ip), vehicle: saline) was 98 % of control and the T/C (dose: 400.0 mg/kg/injection, schedule: Q04DX003 (ip), vehicle: saline) was 102 % of control.
`CS(=O)(=O)CC#N` was tested, and the T/C (dose: 6.25 mg/kg/injection, schedule: Q04DX002 (ip), vehicle: saline with Tween-80) was 91 % of control and 109 % of control, the T/C (dose: 12.5 mg/kg/injection, schedule: Q01DX001 (ip), vehicle: saline with Tween-80) was 93 % of control and the T/C (dose: 12.5 mg/kg/injection, schedule: Q01DX009 (ip), vehicle: saline) was 92 % of control. For the same compound, the T/C (dose: 12.5 mg/kg/injection, schedule: Q04DX002 (ip), vehicle: saline with Tween-80) was 91 % of control and 102 % of control, the T/C (dose: 12.5 mg/kg/injection, schedule: Q04DX003 (ip), vehicle: saline with Tween-80) was 97 % of control and the T/C [7] was 106 % of control. For the same compound, the T/C (dose: 25.0 mg/kg/injection, schedule: Q01DX009 (ip), vehicle: saline) was 92 % of control and 98 % of control, the T/C [8] was 94 % of control and 101 % of control and the T/C (dose: 25.0 mg/kg/injection, schedule: Q04DX002 (ip), vehicle: saline) was 99 % of control and 103 % of control. The T/C [9] was 97 % of control, the T/C [10] was 100 % of control and the T/C (dose: 50.0 mg/kg/injection, schedule: Q04DX002 (ip), vehicle: saline) was 100 % of control.
In the case of `O=S(=O)(/N=C/c1ccccc1)c1ccc(Cl)cc1`, the T/C [1] is reported as 100 % of control and the T/C [2] is reported as 107 % of control.
In the case of `COC(=O)C1=CCC=CC1`, the T/C [2] is reported as 104 % of control and the T/C [3] is reported as 104 % of control.
For `CC(C)(C)N1CCC1C(O)c1ccccc1` (stereo unspecified), the T/C [9] was 100 % of control, the T/C (dose: 50.0 mg/kg/injection, schedule: Q04DX003 (ip), vehicle: saline with Tween-80) was 102 % of control and the T/C [11] was 98 % of control. The T/C [4] was 95 % of control.
For `OC12CCCCC1(O)CCCC2` (stereo unspecified), the T/C [11] was 100 % of control, the T/C [2] was 102 % of control and the T/C (dose: 200.0 mg/kg/injection, schedule: Q01DX001 (ip), vehicle: saline with Tween-80) was 97 % of control. The T/C [3] was 102 % of control, the T/C (dose: 400.0 mg/kg/injection, schedule: Q01DX001 (ip), vehicle: saline with Tween-80) was 97 % of control and the T/C [12] was 102 % of control.
For `CCCNc1ncc(C(=O)O)c(=O)[nH]1`, the T/C (dose: 1.56 mg/kg/injection, schedule: Q01DX009 (ip), vehicle: saline sonified) was 100 % of control, the T/C (dose: 3.1 mg/kg/injection, schedule: Q01DX009 (ip), vehicle: saline sonified) was 100 % of control and the T/C (dose: 6.25 mg/kg/injection, schedule: Q01DX009 (ip), vehicle: saline sonified) was 102 % of control.
With `C/C=C/C=C1/OC(C)=C(C(C)=O)C1=O` the T/C (dose: 12.5 mg/kg/injection, schedule: Q01DX009 (ip), vehicle: saline with Tween-80) was 96 % of control and 97 % of control, the T/C (dose: 25.0 mg/kg/injection, schedule: Q01DX009 (ip), vehicle: saline with Tween-80) was 90 % of control and 95 % of control and the T/C [1] was 90 % of control and 109 % of control. The T/C [2] was 100 % of control and 106 % of control and the T/C [3] was 100 % of control.
With `CN(C)P1(=O)OCC(C(C)(C)C)CO1` (stereo unspecified) the T/C [8] was 101 % of control and 91 % of control, the T/C (dose: 50.0 mg/kg/injection, schedule: Q04DX002 (ip), vehicle: saline with Tween-80) was 97 % of control and 94 % of control and the T/C (dose: 100.0 mg/kg/injection, schedule: Q04DX002 (ip), vehicle: saline with Tween-80) was 86 % of control and 94 % of control and 100 % of control.
With `Nc1ccc2nsnc2c1` the T/C (dose: 50.0 mg/kg/injection, schedule: Q01DX001 (ip), vehicle: Klucel (hydroxypropylcellulose) (HPC)) was 105 % of control, the T/C (dose: 100.0 mg/kg/injection, schedule: Q01DX001 (ip), vehicle: Klucel (hydroxypropylcellulose) (HPC)) was 90 % of control and the T/C (dose: 200.0 mg/kg/injection, schedule: Q01DX001 (ip), vehicle: Klucel (hydroxypropylcellulose) (HPC)) was 103 % of control.
For `NNc1c(F)c(F)c2c(F)c(F)c(F)c(F)c2c1F`, the T/C [7] was 97 % of control, the T/C [10] was 96 % of control and the T/C [11] was 88 % of control.
For `CNC/C(C)=C/Br`, the T/C (dose: 50.0 mg/kg/injection, schedule: Q01DX009 (ip), vehicle: acetone) was 101 % of control, the T/C (dose: 100.0 mg/kg/injection, schedule: Q04DX003 (ip), vehicle: acetone) was 101 % of control and the T/C (dose: 200.0 mg/kg/injection, schedule: Q04DX003 (ip), vehicle: acetone) was 97 % of control.
`Cc1ccc(Cl)cc1N=Cc1ccccc1O` was tested, and the T/C [2] was 98 % of control, the T/C (dose: 132.0 mg/kg/injection, schedule: Q04DX003 (ip), vehicle: saline with Tween-80) was 110 % of control and the T/C [3] was 94 % of control. The T/C [5] was 102 % of control, the T/C (dose: 300.0 mg/kg/injection, schedule: Q04DX003 (ip), vehicle: saline with Tween-80) was 100 % of control and the T/C [12] was 97 % of control.
`CCOc1ccccc1C(=O)OC(CN(CC)CC)c1ccccc1` (stereo unspecified) was tested, and the T/C (dose: 100.0 mg/kg/injection, schedule: Q04DX002 (ip), vehicle: saline) was 95 % of control and the T/C (dose: 200.0 mg/kg/injection, schedule: Q04DX002 (ip), vehicle: saline) was 95 % of control.
For `CCCCS(=O)(=O)C1CCCC1=O` (stereo unspecified), the T/C [4] was 102 % of control, the T/C [5] was 102 % of control and the T/C [6] was 102 % of control.
`CCC1(CCC#N)CCC(N)=CC1=O` (stereo unspecified) was tested, and the T/C [4] was 104 % of control, the T/C [5] was 95 % of control and the T/C [6] was 101 % of control.
For `COC(=O)C1(c2ccccn2)CCN(C)CC1`, the T/C (dose: 100.0 mg/kg/injection, schedule: Q01DX009 (ip), vehicle: saline) was 102 % of control, the T/C (dose: 200.0 mg/kg/injection, schedule: Q01DX009 (ip), vehicle: saline) was 98 % of control and the T/C (dose: 400.0 mg/kg/injection, schedule: Q01DX009 (ip), vehicle: saline) was 101 % of control.
`COc1ccc(C(OC/C=C(\C)CCC=C(C)C)OC/C=C(\C)CCC=C(C)C)cc1` was tested, and the T/C (dose: 12.5 mg/kg/injection, schedule: Q01DX009 (ip), vehicle: other) was 90 % of control, the T/C (dose: 25.0 mg/kg/injection, schedule: Q01DX009 (ip), vehicle: other) was 90 % of control and the T/C (dose: 50.0 mg/kg/injection, schedule: Q01DX009 (ip), vehicle: other) was 90 % of control. For the same compound, the T/C (dose: 100.0 mg/kg/injection, schedule: Q01DX009 (ip), vehicle: other) was 95 % of control and the T/C (dose: 200.0 mg/kg/injection, schedule: Q01DX009 (ip), vehicle: other) was 95 % of control.
For `O=NN(CCCl)C(=O)Nc1cc(NC(=O)N(CCCl)N=O)cc(C(=O)O)c1`, the T/C (dose: 10.0 mg/kg/injection, schedule: Q04DX003 (ip), vehicle: saline with Tween-80) was 186 % of control and the T/C (dose: 20.0 mg/kg/injection, schedule: Q04DX003 (ip), vehicle: saline with Tween-80) was 212 % of control.
`Nc1nc2nc(CBr)c(CBr)nc2c(=O)[nH]1` was tested, and the T/C [3] was 101 % of control.
